Where two headings read alike, the source gives them in different places.
Assay: IV pharmacokinetics in male SD rats
Assay type: in vivo, rat
Settings: for clearance: male, Sprague-Dawley, rat, plasma, iv
Procedure: Pharmacokinetic parameters of some examples were evaluated in male Sprague Dawley (SD) rats after intravenous (IV) and oral (PO) dosing. Male SD rats (5-6 weeks of age) were fasted for 12 hours before administration of the compound of interest. Animals were allowed access to food 2 h after dosing and water was given ad libitum. Except for the compound of Example 13, pharmacokinetic experiments comparing deuterium containing and non-deuterium containing compounds were performed at the same time using the same cohort of animals. The pharmacokinetic properties of the compound of Example 13 were evaluated separately and compared to previously generated data.
For IV dosing, a 0.5 mg/mL solution of the test compound was prepared in a vehicle consisting of 5% DMSO, 5% Cremophore, 90% normal saline. For a 1 mpk dose, 2 mL/kg of this dosing vehicle was administered to each rat by bolus injection into the tail vein. For lower doses, the dosing solution was diluted with the appropriate amount of vehicle. Example 3 was evaluated at 3 mpk by preparing a 1.5 mg/mL solution in the same vehicle and dosing 2 mL/kg. Blood samples from each animal was collected in di-sodium EDTA coated containers at 0.12, 0.25, 0.5, 1.0, 2.0, 4.0, 8.0 and 24.0 hours after dosing. Plasma was separated from the blood samples within 15 minutes following collection and stored at −20±5° C. before analysis.
A standard curve was generated from a stock solution of the test compound with known concentration in methanol. Working solutions having known concentrations ranging from 5-20,000 ng/mL were prepared from the stock solution by dilution with methanol:water (80:20 v/v). 5 uL of the working solutions were added to 45 uL of blank rat plasma to provide standard samples for analysis.
Plasma samples collected from rats after dosing were allowed to reach room temperature. A 50 uL aliquot of each plasma sample and the standard curve plasma samples were treated with 200 uL of acetonitrile containing an internal standard (100 ng/mL; warfarin/diclofenac) and mixed well. The samples were vortexed for 5 minutes followed by centrifugation for 5 minutes at 14000 rpm at 4° C. The supernatant (10 uL) was analyzed by LC-MS/MS (LC: Shimadzu SIL HTc, MS: MDS Sciex API-5500 & 4000 using 75%/25% acetonitrile/0.2% formic acid in Milli-Q water, flow rate: 1.0 mL/min, run time 3 minutes, Atlantis dC18(50×4.6 mm, 3 um; Waters®)) and the concentrations of the test compound in the plasma samples collected from rats at each time point were determined by comparison to the standard curve samples.
Pharmacokinetic parameters were calculated from the plasma concentrations at each time point using Phoenix WinNonlin (Version 7.0) by the non-compartmental analysis (NCA) method. Clearance values are reported as mL/min/kg. AUC values are reported as ng·h/mL.

[1] = IV 0.1 mpk, ± one standard deviation
[2] = 1 mg/kg, IV 1 mpk, ± one standard deviation, read-out: IV clearance 1 mpk
[3] = 0.1 mg/kg, IV 0.1 mpk, ± one standard deviation, read-out: IV clearance 0.1 mpk
[4] = 3 mg/kg, IV 3 mpk, ± one standard deviation, read-out: IV clearance 3 mpk

| Structure (SMILES) | clearance [2] [mL/min/kg] | clearance [3] [mL/min/kg] | other results |
| --- | --- | --- | --- |
| [2H]C([2H])(Oc1cc(C)n(-c2cc(-c3ccnc(C(C)(C)O)n3)ncc2C)c(=O)c1Cl)c1cccc(C(F)(F)F)c1 (single isomer, unassigned) [Example 7-D2, 3-Chloro-2′-(2-(2-hydroxypropan-2-yl)pyrimidin-4-yl)-5′,6-dimethyl-4-((3-(trifluoromethyl)phenyl)methoxy-d2)-2H-[1,4′-bipyridin]-2-one] | 6 ± 1 | 4.9 ± 0.5 | – |
| [2H]C([2H])(Oc1cc(C)n(-c2cc(-c3ccnc(C(C)(C)O)n3)ncc2C)c(=O)c1Cl)c1ccc(F)cc1F (single isomer, unassigned) [Example 11-H2, 3-chloro-4-((2,4-difluorophenyl)methoxy-d2)-2′-(2-(2-hydroxypropan-2-yl)pyrimidin-4-yl)-5′,6-dimethyl-2H-[1,4′-bipyridin]-2-one] | – | – | dose dependence of clearance (IV 0.1 and 1 mpk): strong dose dependence; IV clearance 0.1 mpk [1]: 40 ± 4 mL/min/kg; IV clearance 1 mpk (IV 1 mpk, ± one standard deviation): 22 ± 2 mL/min/kg |
| Cc1cnc(-c2ccnc(C(C)(C)O)n2)cc1-n1c(C)cc(OCc2ccn(C)n2)c(Cl)c1=O [Example 3-H2, 3-chloro-2′-(2-(2-hydroxypropan-2-yl)pyrimidin-4-yl)-5′,6-dimethyl-4-((1-methyl-1H-pyrazol-3-yl)methoxy)-2H-[1,4′-bipyridin]-2-one] | 9 ± 2 | 13 ± 3 | clearance [4]: 8 ± 1 mL/min/kg |
| [2H]C([2H])(Oc1cc(C)n(-c2cc(-c3ccnc(C(C)(C)O)n3)ncc2C)c(=O)c1Cl)c1ccn(C)n1 (single isomer, unassigned) [Example 3-D2, 3-Chloro-2′-(2-(2-hydroxypropan-2-yl)pyrimidin-4-yl)-5′,6-dimethyl-4-((1-methyl-1H-pyrazol-3-yl)methoxy-d2)-2H-[1,4′-bipyridin]-2-one] | 13 ± 2 | 12 ± 3 | clearance [4]: 9 ± 1 mL/min/kg |
| [2H]C([2H])(Oc1cc(C)n(-c2cc(-c3ccnc(C(C)(C)O)n3)ncc2C)c(=O)c1Cl)c1ccccc1 (single isomer, unassigned) [Example 5-D2, 3-Chloro-2′-(2-(2-hydroxypropan-2-yl)pyrimidin-4-yl)-5′,6-dimethyl-4-(phenylmethoxy-d2)-2H-[1,4′-bipyridin]-2-one] | 13 ± 2 | 18 ± 1 | – |
| Cc1cnc(-c2ccnc(C(C)(C)O)n2)cc1-n1c(C)cc(OCc2ccccc2)c(Cl)c1=O [Example 5-H2, 3-chloro-2′-(2-(2-hydroxypropan-2-yl)pyrimidin-4-yl)-5′,6-dimethyl-4-(phenylmethoxy)-2H-[1,4′-bipyridin]-2-one] | 15 ± 2 | 16 ± 2 | – |

Now from value to molecule, other results behind:

| clearance [2] [mL/min/kg] | clearance [3] [mL/min/kg] | Structure (SMILES) | other results |
| --- | --- | --- | --- |
| 25 ± 3 | – | [2H]C([2H])(Oc1cc(C)n(-c2cc(-c3ccnc(C(C)(C)O)n3)ncc2C)c(=O)c1Cl)c1ccc(F)cc1F (single isomer, unassigned) [Example 11-D2, 3-Chloro-4-((2,4-difluorophenyl)methoxy-d2)-2′-(2-(2-hydroxypropan-2-yl)pyrimidin-4-yl)-5′,6-dimethyl-2H-[1,4′-bipyridin]-2-one] | IV clearance 0.1 mpk [1]: 16 ± 5, mL/min/kg |
| 25 ± 7 | – | [2H]C([2H])([2H])C(O)(c1nccc(-c2cc(-n3c(C)cc(OCc4ncc(F)cc4F)c(Cl)c3=O)c(C)cn2)n1)C([2H])([2H])[2H] (single isomer, unassigned) [Example 13-D6, 3-Chloro-4-((3,5-difluoropyridin-2-yl)methoxy)-2′-(2-(2-hydroxypropan-2-yl-1,1,1,3,3,3-d6)pyrimidin-4-yl)-5′,6-dimethyl-2H-[1,4′-bipyridin]-2-one] | effect of deuterium substitution on clearance (IV, versus non-deuterated comparator Example 1-H2): did not result in a statistically significant reduction in clearance |
| 12 ± 2 | 16 ± 3 | COc1cccc(COc2cc(C)n(-c3cc(-c4ccnc(C(C)(C)O)n4)ncc3C)c(=O)c2Cl)c1 [Example 9-H2, 3-chloro-2′-(2-(2-hydroxypropan-2-yl)pyrimidin-4-yl)-4-((3-methoxyphenyl)methoxy)-5′,6-dimethyl-2H-[1,4′-bipyridin]-2-one] | – |
| 3.1 ± 0.3 | 7 ± 4 | Cc1cnc(-c2ccnc(C(C)(C)O)n2)cc1-n1c(C)cc(OCc2cccc(C(F)(F)F)c2)c(Cl)c1=O [Example 7-H2, 3-chloro-2′-(2-(2-hydroxypropan-2-yl)pyrimidin-4-yl)-5′,6-dimethyl-4-((3-(trifluoromethyl)phenyl)methoxy)-2H-[1,4′-bipyridin]-2-one] | – |
| 18 ± 2 | 17 ± 3 | [2H]C([2H])(Oc1cc(C)n(-c2cc(-c3ccnc(C(C)(C)O)n3)ncc2C)c(=O)c1Cl)c1cccc(OC)c1 (single isomer, unassigned) [Example 9-D2, 3-Chloro-2′-(2-(2-hydroxypropan-2-yl)pyrimidin-4-yl)-4-((3-methoxyphenyl)methoxy-d2)-5′,6-dimethyl-2H-[1,4′-bipyridin]-2-one] | – |

From patent publication US12403141B2, “Deuterated MK2 pathway inhibitors and methods of using the same” (ACLARIS THERAPEUTICS, INC., priority 2019, dated 2025)
